Test results published in patent US20250114346A1, “COMBINATION THERAPY USING A KRAS G12D INHIBITOR AND PD-1 INHIBITOR OR PD-L1 INHIBITOR” (Incyte Corporation, priority 2023, published 2025).
“And” between values parts separate entries of the source, which are not always exact repeats. Equal entries are not always repeated. Structures can show the parent of a compound that is named as a salt.

Columns and labels:
[1] = tested on: pERK (Phospho/Total ERK1/2) in CT-26 Clone 299 tumors; experiment: CT-26 Clone 299 pharmacodynamic model (pERK/total ERK in tumor lysates, MesoScale); assay type: in vivo, BALB/c-hPD1/hPDL1 mice
Description: Female BALB/c-hPD1/hPDL1 mice (GemPharmatech, aged 8-10 weeks) were inoculated subcutaneously with 1.0×10^6 CT-26 Clone 299 cells suspended in phosphate buffered saline.
Oral dose administration was continuous for 5 days and 2 doses of Retifanlimab was given. On day 5, plasma and tumor samples were collected 4 hour post oral dose and 24 hours post IP dose following CO2 asphyxiation. Blood was collected into ethylenediaminetetraacetic acid (450480 Greiner Bio-One) tubes. The plasma was analyzed for drug levels. Two tumor fragments per individual were collected and weighed into Omni Bead Ruptor tubes (19-628 Omni International) and flash frozen. One tumor piece was lysed at a 1:5 ratio with homogenization solution (water:acetonitrile:formic acid, 95:5:0.1, v:v:v) for drug concentration analysis. The second tumor piece was then lysed at a 1:5 ratio with lysis buffer (64KL1 FD, Cisbio) with added protease inhibitors (A32957 and A32965, Thermo Fisher) and Blocking Reagent (64KB1AAC, Cisbio) on a Bead Ruptor Elite homogenizer (19-042E, Omni International, Kennesaw, GA). Tumor lysates were spun at 10,000 revolutions per minute for 10 minutes at 4° C. The protein concentration was determined using the Pierce™ BCA Protein Assay method according to the manufacturer's protocol (23227 Thermo Fisher Scientific). The lysates were diluted with additional lysis buffer to a final concentration of 0.4 μg/μL. Samples were analyzed using the MesoScale Discovery Platform on the Phospho/Total ERK1/2 Whole Cell Lysate Kit (K15107D, MesoScale Discovery, Rockville, MD). The pERK levels were first normalized to total ERK for each sample and then to the average pERK/tERK ratio of the vehicle control group.

CT-26 Clone 299 cells = experiment: CT-26 Clone 299 syngeneic efficacy model; assay type: in vivo, BALB/c-hPD1/hPDL1 mice; conditions: for monotherapy-treated mice succumbed to tumor growth: after treatment cessation, by day 43, Compound 1 at 100 mg/kg
Description: BALB/c-hPD1/hPDL1 mice (GemPharmatech, strain #T004025) express human PDCD1 and CD274 (which encode the PD-1 and PD-L1 proteins, respectively) from the respective murine loci for those genes.
For survival (Kaplan-Meier) analysis: in the Compound 1 study, events were recorded when tumor volumes reached 1700 mm^3 or mice met criteria for humane endpoint (e.g. body weight loss, tumor ulceration, overall condition); in the Compound 3 study, events were recorded when tumor volumes reached 2000 mm^3, when mice met criteria for humane endpoint, or upon confirmed recurrence following a complete response (confirmed recurrence defined as a growing tumor […] following a complete response as defined above).

Compound: Cc1nc2c(F)c(-c3cccc(Cl)c3Cl)c(CCC#N)cc2c2c1cc([C@H]1C[C@H]3C[C@H]3N1C(=O)C1CC1)n2[C@H]1[C@H]2CN[C@@H]1C2 (atropisomer, axis not shown; (Ra)) [Compound 1, 3-((Ra)-1-((1R,4R,5S)-2-azabicyclo[2.1.1]hexan-5-yl)-2-((1R,3R,5R)-2-(cyclopropanecarbonyl)-2-azabicyclo[3.1.0]hexan-3-yl)-7-(2,3-dichlorophenyl)-6-fluoro-4-methyl-1H-pyrrolo[3,2-c]quinolin-8-yl)propanenitrile monohydrochloride dihydrate]
- pERK/ERK Inhibition Relative to Vehicle Control (%, Mean) ([1]; 100 mg/kg Cmpd 1 QD, 4 Hr, monohydrochloride dihydrate): 84% and 56% and 85% and 89%

Compound: COC(=O)N1[C@@H]2C[C@@H]([C@@H](OC(F)F)C2)[C@@H]1c1cc2c(C)nc3c(F)c(-c4cccc(Cl)c4Cl)c(CCC#N)cc3c2n1[C@H]1[C@H]2CN[C@@H]1C2 (atropisomer, axis not shown; (Ra)) [Compound 3, Methyl (1R,3R,4R,5S)-3-((Ra)-1-((1R,4R,5S)-2-azabicyclo[2.1.1]hexan-5-yl)-8-(2-cyanoethyl)-7-(2,3-dichlorophenyl)-6-fluoro-4-methyl-1H-pyrrolo[3,2-c]quinolin-2-yl)-5-(difluoromethoxy)-2-azabicyclo[2.2.1]heptane-2-carboxylate]
- TGI (tumor growth inhibition) (CT-26 Clone 299 cells; Compound 3 10 mg/kg BID PO monotherapy, day 34, vs vehicle (p=0.1127)): 47%
- TGI (tumor growth inhibition) (CT-26 Clone 299 cells; Compound 3 30 mg/kg BID PO monotherapy, day 34, vs vehicle (p=0.0411)): 92%

Compound: Cc1c(Nc2nc(C(F)F)nc3cc(CN4CC[C@@H](O)C4)cnc23)cccc1-c1cccc(-c2nc3cc(CN4CCC(C(=O)O)CC4)cc(C#N)c3o2)c1C [Compound 2, (R)-1-((7-Cyano-2-(3′-(2-(difluoromethyl)-7-((3-hydroxypyrrolidin-1-yl)methyl)pyrido[3,2-d]pyrimidin-4-ylamino)-2,2′-dimethylbiphenyl-3-yl)benzo[d]oxazol-5-yl)methyl)piperidine-4-carboxylic acid]
- TGI (tumor growth inhibition) (CT-26 Clone 299 cells; Compound 2 25 mg/kg BID PO monotherapy, day 25): 17%
- tumor growth (CT-26 Clone 299 cells; Compound 2 25 mg/kg BID monotherapy, Compound 3 study): did not meaningfully alter tumor growth
- monotherapy-treated mice succumbed to tumor growth (CT-26 Clone 299 cells): 100%
- inhibition at 25 mg/kg ([1]; Mus musculus, CT26, Compound 2 25 mg/kg BID, 5 days, 4-hour post dose): 10%

Compound: retifanlimab: humanized IgG4 monoclonal antibody that binds to human PD-1 [reference compound]
- monotherapy-treated mice succumbed to tumor growth (CT-26 Clone 299 cells): 90%
- TGI (tumor growth inhibition) (CT-26 Clone 299 cells; retifanlimab 10 mg/kg BIW IP monotherapy, day 25, Compound 1 study): 52%
- TGI (tumor growth inhibition) (CT-26 Clone 299 cells; retifanlimab 10 mg/kg BIW monotherapy, day 34, Compound 3 study (p=0.0263)): 74%
- pERK inhibition ([1]; retifanlimab 10 mg/kg BIW, 24 hours post second dose): 18%
